{
  "source": "paper PMC4832855",
  "about": "(Cancer Science, 2016)",
  "target": "AurA (Homo sapiens, UniProt O14965)",
  "sequence (O14965 whole entry)": "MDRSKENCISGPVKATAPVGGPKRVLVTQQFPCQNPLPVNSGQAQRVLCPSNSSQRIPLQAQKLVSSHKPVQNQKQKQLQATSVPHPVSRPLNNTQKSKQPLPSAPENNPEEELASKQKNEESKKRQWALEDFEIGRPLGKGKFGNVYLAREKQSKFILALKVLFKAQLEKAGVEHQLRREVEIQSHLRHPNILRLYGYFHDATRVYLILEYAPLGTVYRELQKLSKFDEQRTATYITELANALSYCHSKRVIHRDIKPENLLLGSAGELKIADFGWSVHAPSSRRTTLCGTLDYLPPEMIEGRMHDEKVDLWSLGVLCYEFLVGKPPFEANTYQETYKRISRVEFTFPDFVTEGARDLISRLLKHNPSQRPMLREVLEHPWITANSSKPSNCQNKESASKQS",
  "experiment": "Kinase inhibition profiling at 100 nmol/L",
  "assay_type": "biochemical",
  "data": [
    {"smiles": "Cc1ccsc1C(=O)Nc1cc(CN2CCN(C(=O)CO)CC2)ccc1/C=C/c1n[nH]c2ccccc12", "note": "[KW‐2450]", "values": [
      {"measurement": "Inhibition at 100 nmol/L", "setting": "AurA, 100 nmol/L", "result": 99.5, "unit": "%"},
      {"measurement": "inhibition at 0.1 µM", "setting": "read-out: Inhibition at 100 nmol/L, AurA, 100 nmol/L", "result": "> 90", "unit": "%"}
    ]}
  ]
}
